The record followed here is US9096615B2, “Bridged bicyclic amino thiazine dioxide compounds as inhibitors of beta-secretase and methods of use thereof” (AMGEN INC., priority 2013, dated 2015).

For assay [1], the system named is Aβ40 in conditioned medium of cells stably expressing Amyloid Precursor Protein (APP). The assay is described as follows: In vitro BACE cell-based assay (HEK cell assay, Aβ40 sandwich ELISA). Conditions: Homo sapiens, HEK293; average IC50; read-out: BACE1 cell assay IC50. In outline: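 IC50 was derived from percent-of-control Aβ40 against concentration, with Aβ40 quantified by time-resolved fluorescence ELISA (pAb40/6E10-biotin, 4 °C incubations). Supernatants were sampled after 24 h of compound exposure (10 points, starting 100 or 10 μM, 0.1% DMSO) of cells stably expressing APP.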
A general note: ELISA stands for enzyme-linked immunosorbent assay.

A further assay has as its target T1, Cathepsin D (Cat D) (Homo sapiens, UniProt P07339).
T1 construct: made in house; host or cells: CHO cells
Description: In vitro enzymatic Cathepsin D (Cat D) FRET assay. The class given is biochemical. As to conditions: average IC50; first procedure; read-out: CatD IC50. The method in brief: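 Fluorescence (500 nm excitation, 580 nm emission) was measured after Tris quench of a 1 h cleavage of 20 nM quenched peptide substrate. Before that, 9 nM CHO-expressed human Cat D sat with compound for 1 h at pH 3.5 (0.05 M citrate, 5 mM CHAPS, 10% DMSO final).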

The target in another assay is BACE1 (Homo sapiens, UniProt P56817). The assay is described as follows: In vitro enzymatic BACE FRET assay. Format: biochemical. Conditions: average IC50; read-out: BACE1 Enzyme assay IC50. The method in brief:
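Fluorescence (excitation 488 nm, […]) from cleavage of quenched peptide substrate (50 nM), reaction run 1 h after 1 h enzyme–inhibitor pre-incubation, then neutralised with Tris. Conditions: 0.2 nM enzyme, pH 4.2 acetate 0.05 M, 10% DMSO final, 100 uM genapol.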

T1 sequence (P07339 65-412, species assumed): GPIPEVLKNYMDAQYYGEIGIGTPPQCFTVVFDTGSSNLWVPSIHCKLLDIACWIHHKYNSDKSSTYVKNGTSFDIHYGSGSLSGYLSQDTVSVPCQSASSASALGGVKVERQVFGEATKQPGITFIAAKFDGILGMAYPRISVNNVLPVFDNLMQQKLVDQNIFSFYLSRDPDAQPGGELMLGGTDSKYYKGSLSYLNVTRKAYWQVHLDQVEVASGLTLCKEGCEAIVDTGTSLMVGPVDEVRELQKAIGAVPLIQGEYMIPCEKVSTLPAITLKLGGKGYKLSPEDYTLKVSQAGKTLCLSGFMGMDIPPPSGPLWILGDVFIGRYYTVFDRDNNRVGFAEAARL
BACE1, sequence (P56817 46-501, species assumed): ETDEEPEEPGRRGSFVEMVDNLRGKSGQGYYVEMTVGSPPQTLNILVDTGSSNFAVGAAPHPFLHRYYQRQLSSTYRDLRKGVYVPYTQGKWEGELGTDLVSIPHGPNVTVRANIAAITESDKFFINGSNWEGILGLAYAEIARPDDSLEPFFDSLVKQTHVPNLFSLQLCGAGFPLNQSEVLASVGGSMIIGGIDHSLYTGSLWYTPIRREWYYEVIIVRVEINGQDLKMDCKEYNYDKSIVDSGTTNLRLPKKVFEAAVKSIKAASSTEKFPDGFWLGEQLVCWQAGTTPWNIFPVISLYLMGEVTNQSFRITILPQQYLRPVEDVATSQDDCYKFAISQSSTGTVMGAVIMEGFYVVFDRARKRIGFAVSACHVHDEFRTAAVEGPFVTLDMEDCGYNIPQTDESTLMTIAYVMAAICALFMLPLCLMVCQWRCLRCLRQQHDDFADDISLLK

As usually defined, the IC50 is the concentration needed to halve the response being measured. In the case of `COc1cnc(C(=O)Nc2ccc(F)c([C@@]3(C)N=C(N)[C@@]4(CF)CC[C@@H]3S4(=O)=O)c2)c(C)c1` [Example 42, N-(3-((1S,2R,5R)-4-amino-5-(fluoromethyl)-2-methyl-8,8-dioxido-8-thia-3-azabicyclo[3.2.1]oct-3-en-2-yl)-4-fluorophenyl)-5-methoxy-3-methyl-2-pyridinecarboxamide], the IC50 in assay [1] worked out at 30 nM; on Cathepsin D (Cat D) it was 757 µM; at BACE1, 0.013 µM.
For `C[C@]1(c2cc(Nc3nccc4nc(OCc5ncco5)cnc34)ccc2F)N=C(N)[C@@]2(C)CC[C@@H]1S2(=O)=O` [Example 140, N-(3-((1S,2R,5R)-4-amino-2,5-dimethyl-8,8-dioxido-8-thia-3-azabicyclo[3.2.1]oct-3-en-2-yl)-4-fluorophenyl)-2-(1,3-oxazol-2-ylmethoxy)pyrido[3,4-b]pyrazin-5-amine] the same measures were 0.4 nM, 855 µM and 0.001 µM.
The corresponding values for `COc1cnc2c(Nc3ccc(F)c([C@@]4(C)N=C(N)[C@@]5(C)CC[C@@H]4S5(=O)=O)c3)nccc2n1` [Example 80, N-(3-((1S,2R,5R)-4-amino-2,5-dimethyl-8,8-dioxido-8-thia-3-azabicyclo[3.2.1]oct-3-en-2-yl)-4-fluorophenyl)-2-methoxypyrido[3,4-b]pyrazin-5-amine] are 6 nM, more than 400 µM and 0.008 µM.
For `COc1cnc(C(=O)Nc2ccc(F)c([C@@]3(C)N=C(N)[C@@]4(CF)CC[C@@H]3S4(=O)=O)c2)c(C)n1` [Example 76, N-(3-((1S,2R,5R)-4-amino-5-(fluoromethyl)-2-methyl-8,8-dioxido-8-thia-3-azabicyclo[3.2.1]oct-3-en-2-yl)-4-fluorophenyl)-5-methoxy-3-methyl-2-pyrazinecarboxamide] the same measures were 8 nM, 1060 µM and 0.01 µM.
For `C[C@]1(c2cc(NC(=O)c3ccc(Cl)cn3)ccc2F)N=C(N)[C@@]2(CF)CC[C@@H]1S2(=O)=O` [Example 77, N-(3-((1S,2R,5R)-4-amino-5-(fluoromethyl)-2-methyl-8,8-dioxido-8-thia-3-azabicyclo[3.2.1]oct-3-en-2-yl)-4-fluorophenyl)-5-chloro-2-pyridinecarboxamide], the figures for the IC50 (in assay [1]; on Cathepsin D (Cat D); at BACE1) were 3 nM, 570 µM and 0.003 µM, respectively.
Regarding `C[C@]1(c2cc(Nc3nccc4nc(OCc5ncco5)cnc34)ccc2F)N=C(N)[C@@]2(CF)CC[C@@H]1S2(=O)=O` [Example 104, N-(3-((1S,2R,5R)-4-amino-5-(fluoromethyl)-2-methyl-8,8-dioxido-8-thia-3-azabicyclo[3.2.1]oct-3-en-2-yl)-4-fluorophenyl)-2-(1,3-oxazol-2-ylmethoxy)pyrido[3,4-b]pyrazin-5-amine], the IC50 in assay [1] came out at 0.9 nM; at Cathepsin D (Cat D), 799 µM; on BACE1, 0.002 µM.
The corresponding values for `C#CCOc1cnc(C(=O)Nc2ccc(F)c([C@@]3(C)N=C(N)[C@@]4(CF)CC[C@@H]3S4(=O)=O)c2)c(C)n1` [Example 59, N-(3-((1S,2R,5R)-4-amino-5-(fluoromethyl)-2-methyl-8,8-dioxido-8-thia-3-azabicyclo[3.2.1]oct-3-en-2-yl)-4-fluorophenyl)-3-methyl-5-(2-propyn-1-yloxy)-2-pyrazinecarboxamide] are 1 nM, 837 µM and 0.001 µM.
The corresponding values for `COc1cnc2c(Nc3ccc(F)c([C@@]4(C)N=C(N)[C@@]5(C)CC[C@@H]4S5(=O)=O)c3)ncnc2c1` [Example 132, N-(3-((1S,2R,5R)-4-amino-2,5-dimethyl-8,8-dioxido-8-thia-3-azabicyclo[3.2.1]oct-3-en-2-yl)-4-fluorophenyl)-7-methoxypyrido[3,2-d]pyrimidin-4-amine] are 3 nM, 965 µM and 0.006 µM.
For `COc1cnc2c(Nc3ccc(F)c([C@@]4(C)N=C(N)[C@@]5(CF)CC[C@@H]4S5(=O)=O)c3)nccc2c1` [Example 56, N-(3-((1S,2R,5R)-4-amino-5-(fluoromethyl)-2-methyl-8,8-dioxido-8-thia-3-azabicyclo[3.2.1]oct-3-en-2-yl)-4-fluorophenyl)-3-methoxy-1,7-naphthyridin-8-amine] the same measures were 16.7 nM, more than 400 µM and 0.0188 µM.
`COc1cnc2c(Nc3ccc(F)c([C@@]4(C)N=C(N)[C@@]5(CF)CC[C@@H]4S5(=O)=O)c3)ncnc2c1` [Example 97, N-(3-((1S,2R,5R)-4-amino-5-(fluoromethyl)-2-methyl-8,8-dioxido-8-thia-3-azabicyclo[3.2.1]oct-3-en-2-yl)-4-fluorophenyl)-7-methoxypyrido[3,2-d]pyrimidin-4-amine]: the IC50 in assay [1] came to 7 nM; at Cathepsin D (Cat D), 359 µM; on BACE1, 0.007 µM.
The corresponding values for `CC#CCOc1cnc(C(=O)Nc2ccc(F)c([C@@]3(C)N=C(N)[C@@]4(C)CC[C@@H]3S4(=O)=O)c2)cn1` [Example 82, N-(3-((1S,2R,5R)-4-amino-2,5-dimethyl-8,8-dioxido-8-thia-3-azabicyclo[3.2.1]oct-3-en-2-yl)-4-fluorophenyl)-5-(2-butyn-1-yloxy)-2-pyrazinecarboxamide] are 0.07 nM, 717 µM and 0.0005 µM.
For `Cc1cc(Cl)cnc1C(=O)Nc1ccc(F)c([C@@]2(C)N=C(N)[C@@]3(CF)CC[C@@H]2S3(=O)=O)c1` [Example 88, N-(3-((1S,2R,5R)-4-amino-5-(fluoromethyl)-2-methyl-8,8-dioxido-8-thia-3-azabicyclo[3.2.1]oct-3-en-2-yl)-4-fluorophenyl)-5-chloro-3-methyl-2-pyridinecarboxamide] the same measures were 5 nM, 685 µM and 0.003 µM.
For `C[C@]1(c2cc(Nc3ncnc4cc(C(F)(F)F)cnc34)ccc2F)N=C(N)[C@@]2(C)CC[C@@H]1S2(=O)=O` [Example 106, N-(3-((1S,2R,5R)-4-amino-2,5-dimethyl-8,8-dioxido-8-thia-3-azabicyclo[3.2.1]oct-3-en-2-yl)-4-fluorophenyl)-7-(trifluoromethyl)pyrido[3,2-d]pyrimidin-4-amine] the same measures were 6 nM, 317 µM and 0.011 µM.
On to `C[C@]1(c2cc(Nc3ncnc4cc(C#N)cnc34)ccc2F)N=C(N)[C@@]2(CF)CC[C@@H]1S2(=O)=O` [Example 40, 4-((3-((1S,2R,5R)-4-amino-5-(fluoromethyl)-2-methyl-8,8-dioxido-8-thia-3-azabicyclo[3.2.1]oct-3-en-2-yl)-4-fluorophenyl)amino)pyrido[3,2-d]pyrimidine-7-carbonitrile], for which the IC50 in assay [1] turned out to be 35 nM; on Cathepsin D (Cat D), 650 µM; at BACE1, 0.008 µM.
For `Cc1cc(C#N)cnc1C(=O)Nc1ccc(F)c([C@@]2(C)N=C(N)[C@@]3(CF)CC[C@@H]2S3(=O)=O)c1` [Example 96, N-(3-((1S,2R,5R)-4-amino-5-(fluoromethyl)-2-methyl-8,8-dioxido-8-thia-3-azabicyclo[3.2.1]oct-3-en-2-yl)-4-fluorophenyl)-5-cyano-3-methyl-2-pyridinecarboxamide] the same measures were 2 nM, 733 µM and 0.002 µM.
